Where a name gives a salt, the structure may show the parent alone. Values belong to the compound of their own block, whether it stands above or below them.
Tests used:
[1] = tested on: VEGF-induced edema; experiment: Miles assay, VEGF as agonist; format: in vivo, Sprague-Dawley rats; settings: vehicle 12; for Score (scale of 0-12): VEGF 200 ng/site, lower score = greater anti-edema activity; for Score with VEGF as agonist (scale of 0-12): 1.5 mg/kg, VEGF 200 ng/injection site
Protocol: A rodent model of vascular edema, the Miles assay, was used to screen compounds for their ability to inhibit VEGF-induced edema. […] Sprague-Dawley rats were first injected IV with vehicle alone or test agent, followed by IV injection of Evans blue dye, followed by intradermal injections of saline and VEGF (200 ng/injection site) along both shaved flanks.

[2] = biological target: T1, human p120γ subunit of PI3K (Homo sapiens, UniProt P48736); experiment: PI3K enzymatic activity at two concentrations (Upstate Group); format: biochemical; settings: 100% = no inhibition, 0% = complete inhibition
T1 construct: purchased Upstate Group, Charlottesville, Va; (contract assay)
T1 sequence (P48736 whole entry): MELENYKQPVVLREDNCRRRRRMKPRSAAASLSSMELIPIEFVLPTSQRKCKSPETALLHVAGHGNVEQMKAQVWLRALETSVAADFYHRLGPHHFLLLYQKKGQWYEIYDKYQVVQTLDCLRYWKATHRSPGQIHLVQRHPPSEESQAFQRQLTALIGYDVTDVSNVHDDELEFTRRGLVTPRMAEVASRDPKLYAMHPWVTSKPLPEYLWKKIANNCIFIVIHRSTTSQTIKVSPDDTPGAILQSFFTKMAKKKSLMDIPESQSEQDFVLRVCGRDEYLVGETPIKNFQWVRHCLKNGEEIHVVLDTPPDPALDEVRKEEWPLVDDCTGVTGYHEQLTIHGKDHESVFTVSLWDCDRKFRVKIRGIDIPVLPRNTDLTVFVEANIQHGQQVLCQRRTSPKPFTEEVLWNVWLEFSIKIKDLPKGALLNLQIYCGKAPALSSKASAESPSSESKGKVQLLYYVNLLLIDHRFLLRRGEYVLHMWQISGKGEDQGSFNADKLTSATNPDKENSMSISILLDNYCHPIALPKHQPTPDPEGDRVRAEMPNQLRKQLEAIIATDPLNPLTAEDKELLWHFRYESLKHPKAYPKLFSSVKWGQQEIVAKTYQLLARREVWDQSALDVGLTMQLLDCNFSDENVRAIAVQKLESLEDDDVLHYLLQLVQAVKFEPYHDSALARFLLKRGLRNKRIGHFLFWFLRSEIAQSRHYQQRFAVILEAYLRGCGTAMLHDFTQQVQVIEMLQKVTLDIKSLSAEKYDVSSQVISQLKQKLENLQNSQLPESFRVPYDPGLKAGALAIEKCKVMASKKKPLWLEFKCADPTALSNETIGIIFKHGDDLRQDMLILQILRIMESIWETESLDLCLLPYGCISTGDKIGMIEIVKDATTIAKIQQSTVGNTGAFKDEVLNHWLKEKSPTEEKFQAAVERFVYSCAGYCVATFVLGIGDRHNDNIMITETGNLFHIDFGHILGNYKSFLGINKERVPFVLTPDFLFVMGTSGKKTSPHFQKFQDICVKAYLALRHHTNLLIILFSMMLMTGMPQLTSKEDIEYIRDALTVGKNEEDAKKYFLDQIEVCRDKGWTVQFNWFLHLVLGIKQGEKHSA
Protocol: The ability of compounds to inhibit the activity of PI3K kinase was determined using biochemical assays. In a first assay, compounds were tested at two concentrations (0.5 and 5 μM) for their ability to inhibit enzymatic activity of the human p120γ subunit of PI3K (the assay being performed under contract by Upstate Group, Charlottesville, Va.).

[3] = tested on: myocardial infarct; experiment: Rodent model of acute myocardial infarct (LAD occlusion/reperfusion); format: in vivo, Sprague-Dawley rats
Protocol: A rodent model of acute myocardial infarct, in which the proximal left anterior descending coronary artery (LAD) is occluded for 60 min followed by reperfusion, was used to determine whether test agents reduced infarct size at 24 hours.
Myocardial infarcts were created in Sprague-Dawley rats (200-300 g body weight) by a 60 min occlusion of the LAD followed by LAD reperfusion. […] At 24 hr post-treatment, the ischemic zone (area at-risk, AAR) was delineated by re-ligation of the LAD followed by IV injection of alkali blue dye, after which hearts were sectioned along the short axis and stained using triphenyltetrazolium chloride to delineate viable from infarcted myocardium. Photographic images were then analyzed using morphometric software to calculate infarct area as a percent of the at-risk area.
Rodent MI model: All animal studies followed current “NIH Guidelines for the Use of Laboratory Animals” and were performed according to IACUC-approved protocols. Sprague-Dawley rats (275-300 g) were anesthetized using inhaled isoflurane after which chest walls were shaved and swabbed with iodine. Animals were then intubated and maintained on 2% isoflurane (delivered in 30% O2/70% N2), with optimal respiratory rate and stroke volumes set by a volume-controlled safety ventilator (Inspira Advanced Safety Ventilator; Harvard Apparatus, Holliston, Mass.). Body temperatures were maintained at 35-37° C. using heating pads and five-lead electrocardiograms established. For each animal, a left thoracotomy was performed at the third intercostal space, the heart was exposed and a suture snare tightened around the LAD at the point it appeared from beneath the left atrium. Ischemia was confirmed from blanching of the left ventricle (LV) as well as changes in ECG patterns. After the desired period of occlusion (60 min in the standard model), the suture snare was loosened to allow complete reperfusion (but retained in place using shallow sutures) and the chest closed in layers. […].
For infarct size determination, LAD occlusion was repeated on each animal 24 hr after the initial occlusion. The ischemic zone (area-at-risk or AAR) was then delineated by i.v. injection of Evans blue dye (5 ml of a 10% saline solution containing 100 U/ml sodium heparin). The heart was explanted, atria and right ventricle trimmed free, and the LV (septal and free walls) frozen at −20° C. to induce rigor. After thawing on ice, the LV was subdivided into six 2 mm thick sections along the short axis using a metal form to guide dissection. Heart sections were stained for 20 min in 37° C. triphenyltetrazolium chloride (TTC, 2% in 0.04 M K2HPO4/0.17 M sucrose) to delineate viable from infarcted myocardium, fixed for 20 min in 10% formalin, then rinsed in saline. For each section, photographs were taken of both anterior and posterior surfaces and these images analyzed (by personnel blinded as to treatment identity) using a morphometric software package (Image Pro Plus; Media Cybernetics, Silver Spring, Md.). The following areas were calculated, based on their differing pixel densities: non-ischemic zone (Evans blue-stained), viable-but-ischemic zone (free of Evans blue but TTC-stained), and infarct-within-ischemic zone (free of both Evans blue and TTC stain). Area values for anterior and posterior views were averaged, and these values used to calculate the following AAR=Viable-but-ischemic Area+Infarct Area Equation 1 Total LV Area=AAR+Non-ischemic Area Equation 2

[4] = tested on: cerebral infarct; experiment: Rodent model of cerebral stroke (permanent middle cerebral artery occlusion); format: in vivo, mice; settings: 1 mg/kg BW IV 60 min after ligation; for % Infarct reduction: vs vehicle; for Infarct area in mm^3 (mean ± SEM): 24 hours
Protocol: A rodent model of cerebral stroke, in which the middle cerebral artery is permanently occluded, was used to determine whether test agents reduced infarct size at 24 hours.
Cerebral strokes were created in mice by permanent ligation of the middle cerebral artery using a cauterizing tool, followed 60 min later by IV injection of either vehicle alone (50% PEG400 in water) or test agents (at 1 mg/kg BW). Twenty four hours later, brains were sectioned and stained using triphenyltetrazolium chloride to delineate viable from infarcted tissue. Photographic images were then analyzed using morphometric software to calculate infarct area.

[5] = tested on: histamine-induced edema; experiment: Miles assay, histamine as agonist; format: in vivo, Sprague-Dawley rats; settings: 1.5 mg/kg; histamine 10 μg/injection site; vehicle 12
Protocol: Sprague-Dawley rats were first injected IV with vehicle alone or test agent, followed by IV injection of Evans blue dye, followed by intradermal injections of saline and VEGF (200 ng/injection site) along both shaved flanks. […] The ability of test agents to influence edema induced by agonists other than VEGF was also tested. Compounds cited in this application inhibited edema formation induced using histamine as an agonist, for example, as shown below. The ability of test agent to influence vascular edema was tested as above, except that the ability to block edema was tested using either VEGF or histamine as the agonist (200 ng and 10 μg/injection site, respectively).

[6] = 1.5 mg/kg BW IV at 90 min post-reperfusion, 24 hr
[7] = 1.5 mg/kg BW IV at 90 min post-reperfusion, vs vehicle

SMILES: Nc1cncc2nc(-c3ccc(O)c(O)c3)c(-c3ccc(O)c(O)c3)nc12 [2,3-(3,4-Dihydroxyphenyl)-pyrido[3,4-b]pyrazin-8-ylamine]
Score (scale of 0-12) ([1]; 0.01 mg/kg IV): 6

Percent Control Value at 0.5 μM ([2]; 0.5 μM): 101% | Percent Control Value at 5 μM ([2]; 5 μM): 90%
SMILES: Nc1cncc2nc(-c3cccc(O)c3)c(-c3cccc(O)c3)nc12 [3,3′-(8-aminopyrido[3,4-]pyrazine-2,3-diyl)diphenol]

SMILES: O=C(Nc1cc2ccccc2[nH]1)c1cc(O)c(O)c(O)c1 [3,4,5-Trihydroxy-N-(1H-indol-2-yl)-benzamide]
Score with VEGF as agonist (scale of 0-12) [1]: 5

SMILES: O=C(Nc1ccccc1-c1cc2ccccc2[nH]1)c1cc(O)c(O)c(O)c1 [3,4,5-Trihydroxy-N-[2-(1H-indol-2-yl)-phenyl]-benzamide]
Score with VEGF as agonist (scale of 0-12) [1]: 4

SMILES: O=C(CCc1ccc(O)cc1)Nc1ccccc1-c1cc2ccccc2[nH]1 [3-(4-Hydroxy-phenyl)-N-[2-(1H-indol-2-yl)-phenyl]-propionamide]
Score (scale of 0-12) ([1]; 1.5 mg/kg IV): 2

SMILES: Cl.Cl.Nc1nc(N)c2nc(-c3cccc(O)c3)c(-c3cccc(O)c3)nc2n1 [3-[2,4-diamino-6-(3-hydroxyphenyl)pteridin-7-yl] phenol dihydrochloride salt]
Score (scale of 0-12) ([1]; 0.01 mg/kg IV): 3 | Score (scale of 0-12) ([1]; 0.1 mg/kg IV): 4 | Score (scale of 0-12) ([1]; 1 mg/kg IV): 4 | Infarct (% AAR, mean ± SEM) ([3]; 0.1 mg/kg BW IV at 90 min post-reperfusion, 24 hr): 37.7 ± 5.8 % AAR | % Infarct reduction ([3]; 0.1 mg/kg BW IV at 90 min post-reperfusion, vs vehicle): 30% | % Infarct reduction ([3]; 0.1 mg/kg, administration 60 and 240 min post-occlusion): 55% | Infarct (% AAR, mean ± SEM) ([3]; 0.1 mg/kg, administration 60 and 240 min post-occlusion, vehicle 54.0 ± 2.9): 24.2 ± 4.9 % AAR | % Infarct reduction ([3]; 0.1 mg/kg, administration 60 min post-occlusion): 60% | Infarct (% AAR, mean ± SEM) ([3]; 0.1 mg/kg, administration 60 min post-occlusion, vehicle 54.0 ± 2.9): 21.6 ± 5.7 % AAR | % Infarct reduction ([3]; 0.1 mg/kg, administration 120 min post-occlusion): 65% | Infarct (% AAR, mean ± SEM) ([3]; 0.1 mg/kg, administration 120 min post-occlusion, vehicle 54.0 ± 2.9): 18.8 ± 5.6 % AAR | % Infarct reduction ([3]; 0.1 mg/kg, administration 240 min post-occlusion): 65% | Infarct (% AAR, mean ± SEM) ([3]; 0.1 mg/kg, administration 240 min post-occlusion, vehicle 54.0 ± 2.9): 19.1 ± 4.0 % AAR | Infarct (% AAR, mean ± SEM) ([3]; 1.0 mg/kg BW IV at 90 min post-reperfusion, 24 hr): 46.4 ± 2.6 % AAR | % Infarct reduction ([3]; 1.0 mg/kg BW IV at 90 min post-reperfusion, vs vehicle): Not significant

SMILES: O=C(Nc1ccccc1-c1cc2ccccc2[nH]1)c1cccnc1C(=O)O [3-[2-(1H-Indol-2-yl)-phenylcarbamoyl]-pyridine-2-carboxylic acid]
Score (scale of 0-12) ([1]; 0.5 mg/kg IV): 5

SMILES: Nc1nc(N)c2nc(-c3ccc(O)cc3)cnc2n1 [4-(2,4-Diamino-pteridin-6-yl)-phenol (sulfate salt)]
Score (scale of 0-12) ([1]; 5 mg/kg IV): 2

SMILES: Cl.Nc1ncnc2nc(-c3ccc(O)c(O)c3)c(-c3ccc(O)c(O)c3)nc12 [4-[4-amino-6-(3,4-dihydroxyphenyl)pteridin-7-yl]benzene-1,2-diol chloride salt]
Score (scale of 0-12) ([1]; 0.01 mg/kg IV): 6 | Score (scale of 0-12) ([1]; 0.1 mg/kg IV): 3 | Score (scale of 0-12) ([1]; 1 mg/kg IV): 5

SMILES: Nc1nc(N)c2nc(CNCc3ccc(O)c(O)c3)cnc2n1 [4-{[(2,4-Diamino-pteridin-6-ylmethyl)-amino]-methyl}-benzene-1,2-diol]
Score (scale of 0-12) ([1]; 5 mg/kg IV): 4

SMILES: Nc1ncnc2nc(-c3ccccn3)c(-c3ccccn3)nc12 [6,7-Di-pyridin-2-yl-pteridin-4-ylamine]
% Infarct reduction [4]: Not significant

SMILES: Oc1ncnc2nc(-c3ccccc3)c(-c3ccccc3)nc12 [6,7-Diphenyl-pteridin-4-ol]
Score with VEGF as agonist (scale of 0-12) [1]: 3

SMILES: Cl.Nc1nc(N)c2nc(-c3ccc(O)c(O)c3)c(-c3ccc(O)c(O)c3)nc2n1 [6,7-bis(3,4-dihydroxyphenyl)-pteridine-2,4,-diamine, hydrochloride salt]
Infarct (% AAR, mean ± SEM) [3, 6]: 36.3 ± 6.3 % AAR | % Infarct reduction [3, 7]: 33%

SMILES: Nc1ncnc2nc(-c3ccc(O)cc3)c(-c3ccc(O)cc3)nc12.O=S(=O)(O)O [6,7-bis(4-hydroxyphenyl)-pteridin-4-ylamine sulfate salt]
Score with VEGF as agonist (scale of 0-12) [1]: 4 | Score with histamine as agonist (scale of 0-12) [5]: 3 | Infarct (% AAR, mean ± SEM) [3, 6]: 60.6 ± 1.8 % AAR | % Infarct reduction [3, 7]: 20% | Infarct area in mm^3 (mean ± SEM) [4]: 18.3 ± 2.6 mm^3 | % Infarct reduction [4]: 53%

SMILES: Nc1nc(N)c2nc(CNCc3ccccn3)cnc2n1 [6-{[(Pyridin-2-ylmethyl)-amino]-methyl}-pteridine-2,4-diamine]
Score (scale of 0-12) ([1]; 0.1 mg/kg IV): 4

SMILES: Cc1ccc(-c2nn(C(C)(C)C)c3ncnc(N)c23)cc1 [PP1, reference compound]
Infarct area in mm^3 (mean ± SEM) [4]: 35.4 ± 6.4 mm^3 | % Infarct reduction [4]: Not significant

SMILES: CN(C)S(=O)(=O)c1ccc2c(c1)/C(=C/c1cc3c([nH]1)CCCC3)C(=O)N2 [SU6656, reference compound]
% Infarct reduction [4]: Not significant

Reference: US7691858B2, “Kinase inhibitors and methods of use thereof” (TargeGen, Inc., priority 2006, dated 2010)
